Patent US20140134648A1, “METHODS OF DETERMINING THE HEALTH STATUS OF AN INDIVIDUAL” (NODALITY, INC., priority 2008, published 2014)
“Also recorded” adds a separate entry of the source.

System: CD34+ myeloblast cells in healthy BMMCs
Experiment: Effects of therapeutics on healthy bone marrow mononuclear cells: CD45 versus CD34 expression by flow cytometry
Type: cell-based
Conditions: live healthy BMMCs, 1:3 dilutions, 100 μM to 0.0017 μM, after 24 hours

## O=C(CCCCCCC(=O)Nc1ccccc1)NO [Vorinostat]
  loss / viability of the rare population of CD34+ myeloblast cells: selective loss of rare population of CD34+ myeloblast cells in a dose-dependent fashion; also recorded: concentration dependent loss of CD34+ myeloblast cells

## Nc1ncn([C@@H]2O[C@H](CO)[C@@H](O)[C@H]2O)c(=O)n1 [5-Azacytidine]
  loss / viability of the rare population of CD34+ myeloblast cells: dose-dependent loss of a rare population of CD34+ myeloblast cells; also recorded: concentration dependent loss of CD34+ myeloblast cells
